From patent publication US7527916B2, “Photopolymerizable composition” (Agfa Graphics, N.V., priority 2003, dated 2009)

Experiment: Solubility test in methyl ethyl ketone
Assay type: physicochemical
Settings: 1.5 g sensitiser in 100 g methyl ethyl ketone, stirred at room temperature (20° C.) for a maximum of 24 hours
Description: Solubility Test in Methyl Ethyl Ketone
1.5 g of the sensitiser is dissolved in 100g of methyl ethyl ketone and allowed to stir at room temperature (20° C.) for a maximum of 24 hours. If the sensitiser is completely dissolved in the methyl ethyl ketone, the sensitiser passes the solubility test and is considered as a preferred sensitiser according to the present invention.

Structure (SMILES) | Solubility test MEK (15 g/kg)
CCC(C)Oc1c(OC)cc(C=Cc2ccc(C=Cc3cc(OC)c(OC(C)CC)c(OC)c3)cc2)cc1OC (centres unmarked) [(D), 1,4-distyryl-(3,5-trimethoxy, 4-(2-butyl)oxy)benzene] | OK (If the sensitiser is completely dissolved in the methyl ethyl ketone, the sensitiser passes the solubility test)
CCCCC(CC)COc1c(OC)cc(C=Cc2ccc(C=Cc3cc(OC)c(OCC(CC)CCCC)c(OC)c3)cc2)cc1OC (centres unmarked) [(F), 1,4-distyryl-(3,5-trimethoxy, 4-(1-(2-ethyl)hexyl)oxy)benzene] | OK (If the sensitiser is completely dissolved in the methyl ethyl ketone, the sensitiser passes the solubility test)
